Values joined by “and” are separate entries in the source; they are usually repeats but may differ in a detail not shown here. Equal values may be shown once.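 Results reflect a 48-hour exposure of cells in 96-well plates to compound at five concentrations. GI50 = concentration required for 50% inhibition of growth. TGI marks complete inhibition of growth.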
Legend:
Assay in all cases: NCI-60 cell line screen, 48 h
CCRF-CEM leukemia = system: CCRF-CEM leukemia
HCC-2998 colon = system: HCC-2998 colon
HCT-15 colon = system: HCT-15 colon
MCF7 breast = system: MCF7 breast
NCI/ADR-RES ovarian = system: NCI/ADR-RES ovarian
RXF 393 renal = system: RXF 393 renal
SK-MEL-2 melanoma = system: SK-MEL-2 melanoma
SK-MEL-28 melanoma = system: SK-MEL-28 melanoma
SW-620 colon = system: SW-620 colon
U251 CNS = system: U251 CNS

| Compound | GI50 (CCRF-CEM leukemia) | TGI (CCRF-CEM leukemia) | GI50 (HCC-2998 colon) | TGI (HCC-2998 colon) | GI50 (HCT-15 colon) | TGI (HCT-15 colon) | GI50 (MCF7 breast) | TGI (MCF7 breast) | GI50 (NCI/ADR-RES ovarian) | TGI (NCI/ADR-RES ovarian) | GI50 (RXF 393 renal) | TGI (RXF 393 renal) | GI50 (SK-MEL-2 melanoma) | TGI (SK-MEL-2 melanoma) | GI50 (SK-MEL-28 melanoma) | TGI (SK-MEL-28 melanoma) | GI50 (SW-620 colon) | TGI (SW-620 colon) | GI50 (U251 CNS) | TGI (U251 CNS) |
| --- | --- | --- | --- | --- | --- | --- | --- | --- | --- | --- | --- | --- | --- | --- | --- | --- | --- | --- | --- | --- |
| COc1ccc([I+]c2ccccc2)cc1 | 2.86 µM | > 100 µM | 10 µM | > 100 µM | 42.1 µM | > 100 µM | 5.69 µM | > 100 µM | > 100 µM | > 100 µM | 13.9 µM | > 100 µM | 51.4 µM | > 100 µM | 25.9 µM | > 100 µM | 3.37 µM | > 100 µM | 7.94 µM | > 100 µM |
| C[n+]1c2ccccc2c(Nc2ccc(NS(=O)(=O)CCCCN=C(N)N)cc2)c2ccc(N)cc21 | 0.303 µM | > 35.9 µM | 8.97 µM | > 100 µM | 50.9 µM | > 100 µM | 0.0429 µM | > 81.2 µM | > 100 µM | > 100 µM | 15.7 µM | > 70.8 µM | 18.5 µM | 50.6 µM | 11.2 µM | > 72.3 µM | 4.88 µM | > 100 µM | 0.22 µM | 54 µM |
| O=C(O)c1ccc2c3c(ncnc13)-c1ccccc1C2=O | > 84.6 µM | > 100 µM | 8.52 µM | > 100 µM | 2.47 µM | > 48 µM | 4.14 µM | > 100 µM | 42.8 µM | > 100 µM | > 47.2 µM | > 100 µM | 20.7 µM | > 100 µM | 1.64 µM | 4.04 µM | 4.78 µM | > 100 µM | 4.08 µM | > 100 µM |
| CC(C)[NH-].CC(C)[NH-].O.O.[Cl][Pt+2][Cl] | 6.59 µM | 97.7 µM | 87.9 µM | 220 µM | 35.7 µM | 208 µM | 19.4 µM | 102 µM | 60.9 µM | 343 µM | 26.6 µM | 137 µM | 19 µM | 91.6 µM | 46.8 µM | 197 µM | 23.1 µM | 137 µM | 27.3 µM | 107 µM |
| COc1ccc2c(c1)c1nc3cc(C)c(C)cc3nc1n2CCN(C)C | 0.797 µM | 3.67 µM | 1.07 µM | 2.58 µM | 0.417 µM | 1.77 µM | 0.333 µM | 1.42 µM | 0.599 µM | 2.46 µM | 1.22 µM | 2.88 µM | 1.46 µM | 3.29 µM | 1.65 µM | 3.29 µM | 0.405 µM | 1.73 µM | 0.57 µM | 2.19 µM |
| Clc1ccc(C(c2ccc(Cl)cc2)N2CCNCC2)cc1 | – | 15.3 µM | – | 3.05 µM | – | 8.79 µM | – | 3.86 µM | – | 13.6 µM | – | 9.75 µM | – | 3.63 µM | – | 3.45 µM | – | 4.96 µM | – | 4.2 µM |
| Cc1cccc(Cl)c1NC(=O)c1cnc(Nc2cc(N3CCOCC3)cc(N3CCOCC3)c2)s1 | > 6.27 µM | > 10 µM | > 4.21 µM | > 10 µM | 0.39 µM | > 10 µM | > 4.47 µM | > 10 µM | 1.05 µM | > 10 µM | 0.0123 µM | 0.153 µM | > 5.25 µM | > 10 µM | > 5.32 µM | > 10 µM | > 6.79 µM | > 10 µM | > 3.85 µM | > 10 µM |
| CN[C@@H]1C[C@H]2O[C@@](C)([C@@H]1OC)n1c3ccccc3c3c4c(c5c6ccccc6n2c5c31)C(=O)N[C@H]4O | 0.0307 µM | > 10 µM | 0.0722 µM | 0.974 µM | 0.157 µM | > 3.31 µM | 0.0283 µM | 1.51 µM | 0.167 µM | 0.907 µM | – | 0.0534 µM | 0.0358 µM | 0.853 µM | 0.0845 µM | 1.48 µM | 0.104 µM | > 5.91 µM | 0.0676 µM | 0.651 µM |
| C[C@@H](NC(=O)[C@@H](CC(=O)N1CCC(N2CCCCC2)CC1)N1C(=O)[C@@H](N2C(=O)OC[C@@H]2c2ccccc2)[C@H]1/C=C/c1cccc(Cl)c1)c1ccccc1 | 2.73 µM | 7.93 µM | 1.99 µM | 4.08 µM | 2.56 µM | 7.74 µM | 2.04 µM | 5.36 µM | 5.92 µM | 24.8 µM | 2.15 µM | 3.98 µM | 2.25 µM | 5.36 µM | 1.8 µM | 3.63 µM | 2.06 µM | 4.7 µM | 2.03 µM | 4.06 µM |
| CCCCOC(=O)c1ccc(NC(=O)CCl)cc1 | 0.789 µM | 6.07 µM | 15.6 µM | 32.7 µM | 1.43 µM | 3.19 µM | 2.35 µM | 10 µM | 2.79 µM | 8.84 µM | 1.55 µM | 3.19 µM | 4.89 µM | 15.9 µM | 3.87 µM | 13.6 µM | 1.59 µM | 3.38 µM | 1.71 µM | 3.1 µM |
| O=C(NCCCCCCNC(=O)n1cc(F)c(=O)[nH]c1=O)NCCCOCCOCCOCCOCCOCCOCCOCCOCCOCCOCCOCCOCCOCCOCCOCCOCCOCCOCCOCCOCCOCCCNC(=O)C(O)C(O)C(OC1OC(CO)C(O)C(O)C1O)C(O)CO (configuration not stated) | – | > 100 µM | – | > 87.2 µM | – | > 100 µM | – | > 46.8 µM | – | > 100 µM | – | > 100 µM | – | > 100 µM | – | > 100 µM | – | > 100 µM | – | > 100 µM |
| OC(C1CO1)C(O)C1CO1 (configuration not stated) | 1.53 µM | 120 µM and 392 µM | 60.5 µM | 87.9 µM and 138 µM | – | 131 µM and 406 µM | 3.89 µM | 140 µM and 78.2 µM | 81 µM | 123 µM and 320 µM | 71.4 µM | 139 µM and 231 µM | 137 µM | 116 µM and 345 µM | – | 144 µM and 239 µM | 52.4 µM and 93 µM | 150 µM and 458 µM | 7.78 µM | 114 µM and 168 µM |
